The values below come from patent US12258338B2, “Modulators of the integrated stress response pathway” (EVOTEC INTERNATIONAL GMBH, priority 2019, dated 2025).

Each structure is given as a SMILES string.

This test has as its system ATF4. Briefly: HEK-ATF4 High Content Imaging assay (prevention of Tunicamycin induced ISR; ATF4 signal ratio between nucleus and cytoplasm). The settings on record: Homo sapiens; Wild-type HEK293 cells, Tunicamycin induced ISR, 6 h; read-out: IIEK-ATF4 Activity. Format: cell-based. The procedure: HEK-ATF4 High Content Imaging Assay
Example compounds were tested in the HEK-ATF4 High Content Imaging assay to assess their pharmacological potency to prevent Tunicamycin induced ISR. Wild-type HEK293 cells were plated in 384-well imaging assay plates at a density of 12,000 cells per well in growth medium (containing DMEM/F12, 10% FBS, 2 mM L-Glutamine, 100 U/mL Penicillin-100 μg/mL Streptomycin) and incubated at 37° C., 5% CO2. 24 h later, the medium was changed to 50 μL assay medium per well (DMEM/F12, 0.3% FBS, 2 mM L-Glutamine, 100 U/mL Penicillin-100 μg/mL Streptomycin). Example compounds were serially diluted in DMSO, spotted into intermediate plates and prediluted with assay medium containing 3.3 μM Tunicamycin to give an 11-fold excess of final assay concentration. In addition to the example compound testing area, the plates also contained multiples of control wells for assay normalization purposes, wells containing Tunicamycin but no example compounds (High control), as well as wells containing neither example compound nor Tunicamycin (Low control). The assay was started by transferring 5 μL from the intermediate plate into the assay plates, followed by incubation for 6 h at 37° C., 5% CO2. Subsequently, cells were fixed (4% PFA in PBS, 20 min at r.t.) and submitted to indirect ATF4 immunofluorescence staining (primary antibody rabbit anti ATF4, clone D4B8, Cell Signaling Technologies; secondary antibody Alexa Fluor 488 goat anti-rabbit IgG (H+L), Thermofisher Scientific). Nuclei were stained using Hoechst dye (Thermofisher Scientific), and plates were imaged on an Opera Phenix High Content imaging platform equipped with 405 nm and 488 nm excitation. Finally, images were analyzed using script based algorithms. The main readout HEK-ATF4 monitored the ATF4 signal ratio between nucleus and cytoplasm. Tunicamycin induced an increase in the overall ATF4 ratio signal, which was prevented by ISR modulating example compounds. In addition, HEK-CellCount readout was derived from counting the number of stained nuclei corresponding to healthy cells. This readout served as an internal toxicity control.
Take `O=C(COc1ccc(Cl)c(F)c1)N[C@H]1CC[C@H](c2nnc(-c3ccc(Cl)cc3)o2)NC1=O` (racemic) [Example 37, Rac-2-(4-chloro-3-fluorophenoxy)-N-[6-[5-(4-chlorophenyl)-1,3,4-oxadiazol-2-yl]-2-oxopiperidin-3-yl]acetamide]: the IC50 lay in the range of 0.001 to 0.5 µM. The figure for `O=C(COc1cc(F)c(Cl)c(F)c1)N[C@H]1CC[C@H](c2nnc(OCCC(F)(F)F)o2)NC1` [Example 22, 2-(4-chloro-3,5-difluorophenoxy)-N-[(3S,6R)-6-[5-(3,3,3-trifluoropropoxy)-1,3,4-oxadiazol-2-yl]piperidin-3-yl]acetamide] is 0.5 to 2 µM; for `O=C(COc1ccc(C(F)(F)F)c(F)c1)N[C@H]1CC[C@H](c2nnc(OCCC(F)(F)F)o2)NC1` [Example 23, 2-[3-fluoro-4-(trifluoromethyl)phenoxy]-N-[(3S,6R)-6-[5-(3,3,3-trifluoropropoxy)-1,3,4-oxadiazol-2-yl]piperidin-3-yl]acetamide] it is 0.001 to 0.5 µM; for `O=C(COc1ccc(Cl)c(F)c1)N[C@H]1CC[C@H](c2nnc(OCC(F)(F)C(F)(F)F)o2)NC1` [Example 73, 2-(4-chloro-3-fluorophenoxy)-N-[(3S,6R)-6-[5-(2,2,3,3,3-pentafluoropropoxy)-1,3,4-oxadiazol-2-yl]piperidin-3-yl]acetamide] it is 0.5 to 2 µM. The figure for `C[C@H](Oc1ccc(Cl)cc1)C(=O)N[C@H]1CC[C@H](c2nnc(-c3ccc(C(F)(F)F)cc3)o2)NC1` (single isomer, unassigned) [Example 107] is 2 to 15 µM.

Consider `O=C(COc1ccc(Cl)c(F)c1)N[C@@H]1CC[C@H](c2nnc(-c3ccc(Cl)cc3)o2)NC1` [Example 36, 2-(4-chloro-3-fluorophenoxy)-N-[(3R,6R)-6-[5-(4-chlorophenyl)-1,3,4-oxadiazol-2-yl]piperidin-3-yl]acetamide], for which the IC50 was 0.5 to 2 µM. With `COCCN1C[C@H](NC(=O)COc2ccc(Cl)c(F)c2)CC[C@H]1c1nnc(-c2ccc(Cl)cc2)o1` [Example 48, 2-(4-chloro-3-fluoro-phenoxy)-N-[(3R,6S)-6-[5-(4-chlorophenyl)-1,3,4-oxadiazol-2-yl]-1-(2-methoxyethyl)piperidin-3-yl]acetamide], the IC50 is 0.5 to 2 µM.

On to `O=C(COc1ccc(Cl)cc1F)N[C@H]1CC[C@H](c2nnc(OCCC(F)(F)F)o2)NC1` [Example 17, 2-(4-chloro-2-fluorophenoxy)-N-[(3S,6R)-6-[5-(3,3,3-trifluoropropoxy)-1,3,4-oxadiazol-2-yl]piperidin-3-yl]acetamide], for which the IC50 was 2 to 15 µM.

With `O=C(COc1ccc(Cl)c(F)c1F)N[C@H]1CC[C@H](c2nnc(OCCC(F)(F)F)o2)NC1` [Example 21, 2-(4-chloro-2,3-difluorophenoxy)-N-[(3S,6R)-6-[5-(3,3,3-trifluoropropoxy)-1,3,4-oxadiazol-2-yl]piperidin-3-yl]acetamide], the IC50 lay within 0.5 to 2 µM.

On to `O=C(COc1cc(Cl)c(Cl)c(Cl)c1)N[C@H]1CC[C@H](c2nnc(OCCC(F)(F)F)o2)NC1` [Example 26, 2-(3,4,5-trichlorophenoxy)-N-[(3S,6R)-6-[5-(3,3,3-trifluoropropoxy)-1,3,4-oxadiazol-2-yl]piperidin-3-yl]acetamide], for which the IC50 lay within 2 to 15 µM.

In the case of `O=C(COc1ccc(Cl)c(Cl)c1)N[C@H]1CC[C@H](c2nnc(OCCC(F)(F)F)o2)NC1` [Example 20, 2-(3,4-dichlorophenoxy)-N-[(3S,6R)-6-[5-(3,3,3-trifluoropropoxy)-1,3,4-oxadiazol-2-yl]piperidin-3-yl]acetamide], the IC50 is 0.001 to 0.5 µM.

For `O=C(COc1ccc(F)c(Cl)c1)N[C@H]1CC[C@H](c2nnc(OCCC(F)(F)F)o2)NC1` [Example 18, 2-(3-chloro-4-fluorophenoxy)-N-[(3S,6R)-6-[5-(3,3,3-trifluoropropoxy)-1,3,4-oxadiazol-2-yl]piperidin-3-yl]acetamide], the IC50 is 0.5 to 2 µM. On to `O=C(COc1ccc(C(F)(F)F)c(Cl)c1)N[C@H]1CC[C@H](c2nnc(OCCC(F)(F)F)o2)NC1` [Example 25, 2-[3-chloro-4-(trifluoromethyl)phenoxy]-N-[(3S,6R)-6-[5-(3,3,3-trifluoropropoxy)-1,3,4-oxadiazol-2-yl]piperidin-3-yl]acetamide], for which the IC50 is 0.001 to 0.5 µM. Under `O=C(COc1cccc(C(F)(F)F)c1)N[C@H]1CC[C@H](c2nnc(OCCC(F)(F)F)o2)NC1` [Example 28, 2-[3-(trifluoromethyl)phenoxy]-N-[(3S,6R)-6-[5-(3,3,3-trifluoropropoxy)-1,3,4-oxadiazol-2-yl]piperidin-3-yl]acetamide] stands 2 to 15 µM; under `O=C(COc1ccc(C(F)(F)F)cc1)N[C@H]1CC[C@H](c2nnc(OCCC(F)(F)F)o2)NC1` [Example 19, 2-[4-(trifluoromethyl)phenoxy]-N-[(3S,6R)-6-[5-(3,3,3-trifluoropropoxy)-1,3,4-oxadiazol-2-yl]piperidin-3-yl]acetamide], 0.5 to 2 µM. The figure for `CC(C)(C)OC(=O)N1C[C@@H](NC(=O)COc2ccc(Cl)c(F)c2)CC[C@@H]1c1nnc(-c2ccc(Cl)cc2)o1` [Example 39, tert-butyl (2R,5S)-5-[2-(4-chloro-3-fluorophenoxy)acetamido]-2-[5-(4-chlorophenyl)-1,3,4-oxadiazol-2-yl]piperidine-1-carboxylate] is 2 to 15 µM; for `O=C(N[C@H]1CC[C@H](c2nnc(OCCC(F)(F)F)o2)NC1)C(F)(F)Oc1ccc(Cl)c(F)c1` [Example 24, 2-(4-chloro-3-fluorophenoxy)-2,2-difluoro-N-[(3S,6R)-6-[5-(3,3,3-trifluoropropoxy)-1,3,4-oxadiazol-2-yl]piperidin-3-yl]acetamide] it is 0.5 to 2 µM. Under `O=C(COc1ccc(Cl)c(F)c1)N[C@H]1CC[C@H](c2nnc(OCCCC(F)(F)F)o2)NC1` [Example 74, 2-(4-chloro-3-fluorophenoxy)-N-[(3S,6R)-6-[5-(4,4,4-trifluorobutoxy)-1,3,4-oxadiazol-2-yl]piperidin-3-yl]acetamide] stands 0.001 to 0.5 µM. Take `O=C(COc1ccc(Br)cc1)N[C@H]1CC[C@H](c2nnc(OCCC(F)(F)F)o2)NC1` [Example 27, 2-(4-bromophenoxy)-N-[(3S,6R)-6-[5-(3,3,3-trifluoropropoxy)-1,3,4-oxadiazol-2-yl]piperidin-3-yl]acetamide]: the IC50 lay in the range of 0.001 to 0.5 µM. The figure for `CC(COc1nnc([C@H]2CC[C@H](NC(=O)COc3ccc(Cl)c(F)c3)CN2)o1)C(F)(F)F` (stereo partly drawn) [Example 63, 2-(4-chloro-3-fluorophenoxy)-N-[(3S,6R)-6-[5-(3,3,3-trifluoro-2-methylpropoxy)-1,3,4-oxadiazol-2-yl]piperidin-3-yl]acetamide] is 0.5 to 2 µM.
